Measurements taken from patent US11746354B2, “Homology dependent repair genome editing” (Inari Agriculture Technology, Inc., priority 2019, dated 2023).

System: maize (Zea mays) r1-colored1 gene
Test: HDR editing of an endogenous gene in maize protoplasts (RNP + dsDNA donor template, MiSeq sequencing)
Assay type: cell-based
Design: unit not given here
Settings: 5 μM compound, 0.1% DMSO, B104 maize protoplasts, 48 hours at 26 degrees Celsius in the dark, average of triplicate samples; for Hypoxia Avg. (HDR): hypoxic conditions; for Normoxia Avg. (HDR): normoxic conditions
Description: This example describes a second set of experiments which investigated the effects of the 81 small molecules previously identified in the “traffic light” screen (Example 1) on HDR efficiency in editing an endogenous gene, the maize (Zea mays) r1-colored1 gene with partial genomic sequence SEQ ID NO: 5. A ribonucleoprotein (RNP) was prepared with a guide RNA designed to edit the promoter located at positions 313-333 of SEQ ID NO:5. A donor template was provided as a dsDNA for HDR repair. The experiments were carried out with protoplasts produced from etiolated leaves of B104 maize grown in the dark for 11 days. The protoplasts were co-transfected with the RNP and donor template. Transfected cells were incubated 48 hours at 26 degrees Celsius in the dark under either normoxic or hypoxic conditions with the indicated negative controls, positive controls, and small molecules and then harvested. The negative controls comprised cells transfected with the RNP only (no donor template). DMSO controls comprised the RNP and donor template and DMSO at a final concentration of 0.5% by volume DMSO. The positive control was a mixture of KU-0060648 (CAS No. 881375-00-4; Fischer Scientific, Waltham, Mass., USA), STL127705 (7-[2-(3,4-dimethoxyphenyl)ethyl]amino-3-(3-fluorophenyl)pyrimido[4,5-d]pyrimidine-2,4(1H,3H)-dione); Vitas-M, Champaign, Ill., USA), NU7441 (CAS No. 503468-95-9; Fischer Scientific Waltham, Mass., USA), and SCR7 pyrazine (CAS No. 14892-97-8; Tocris, Minneapolis, Minn., USA) (all at a stock concentration of 5 mM in DMSO) that was provided to the protoplasts at a final concentration of each of the four compounds of 5 μM. Certain positive control compounds have been reported to increase CRISPR-mediated HDR (Robert et al. 2015; Chu et al., 2015). All of the tested small molecules were also provided to the protoplasts at a final concentration of 5 μM of the compound and a final DMSO concentration of 0.1% by volume. Genomic DNA was isolated using KAPA Pure Bead capture (Kapa Biosystem) and the isolated gDNA was used as the template for a PCR with PHUSION FLASH (ThermoFisher). Samples were cleaned with KAPA Pure Bead capture and Illumina libraries were prepared and sequenced on MiSeq.

| Compound | Hypoxia Avg. (HDR) | Normoxia Avg. (HDR) |
| --- | --- | --- |
| Nc1nc(Cl)nc2c1ncn2[C@@H]1O[C@H](CO)[C@@H](O)[C@H]1O [2-Chloroadenosine] | 5.00 | 2.45 |
| CN(C)NC(=O)CCC(=O)O [Daminozide] | 0.48 | 4.57 |
| Cc1oc(-c2ccccc2)nc1CCOc1ccc(CC2SC(=O)NC2=O)c2sccc12 (stereo not drawn) [Edaglitazone] | 6.28 | 3.56 |
| CC(C)Cn1c(=O)n(C)c(=O)c2nc[nH]c21 [IBMX] | 4.23 | 3.05 |
| Cc1ccc(C(=O)N(CCCN)[C@@H](c2[nH]c3cc(Cl)ccc3c(=O)[n+]2Cc2ccccc2)C(C)C)cc1 [Ispinesib] | 4.04 | 3.36 |
| CC(=O)NCCNc1cc(Cl)nn2c(-c3cccc(S(=O)(=O)N(C)C)c3)c(C)nc12 [MI 14] | 7.75 | 0.37 |
| c1ccc(-c2ccc(CNc3nc(-c4ccccn4)nnc3-c3ccccc3)cc2)cc1 [ML 228] | 4.49 | 0.46 |
| CSc1nc(-c2ccc(F)cc2)c(-c2ccnc(NC(C)c3ccccc3)c2)[nH]1 (stereo not drawn) [ML 3403] | 4.36 | 1.47 |
| Nc1nccc(-c2ccc3noc(-c4ccc(Cl)cc4)c3c2)n1 [PIM-1 Inhibitor 2] | 5.19 | 1.37 |
| CC(=O)[C@H]1CC[C@H]2[C@@H]3CC[C@@H]4C[C@H](O)CC[C@]4(C)[C@H]3CC[C@]12C [Pregnanolone] | 2.52 | 4.43 |
| O=C1N=C(NCc2cccs2)S/C1=C\c1ccc2ncccc2c1 [Ro 3306] | 4.91 | 1.64 |
| CN(CCOc1ccc(CC2SC(=O)NC2=O)cc1)c1ccccn1 (stereo not drawn) [Rosiglitazone] | 4.97 | 3.20 |
| Cc1ccc(C(=O)N(CCCN)[C@@H](c2oc3cc(Cl)ccc3c(=O)c2Cc2ccccc2)C(C)C)cc1.Cl [SB 743921 Hydrochloride] | 2.97 | 4.76 |
| O=S(=O)(NCCCCCCc1ccccc1)c1cccc2c(Cl)cccc12 [SC-9] | 5.11 | 2.67 |
| CC(C)(C)c1ccc(S(=O)(=O)NCc2ccc(C(=O)Nc3cccnc3)cc2)cc1 [STF 31] | 5.00 | 0.40 |
